Calls of active or inactive are those of the source. The calls are words filed in the database; no cut-off is given here.
Assays:
[1] = biological target: Signal transducer and activator of transcription 3 (Homo sapiens) (UniProt P40763); assay: Inhibition of STAT3 phosphorylation at Tyr-705 residue in human MDA-MB-231 cells after 12 hrs by Western blot analysis; format: cell-based
[2] = biological target: Signal transducer and activator of transcription 3 (Homo sapiens) (UniProt P40763); assay: Inhibition of IL-6-stimulated STAT3 phosphorylation at Tyr-705 residue in human MDA-MB-231 cells at 1 to 4 uM preincubated for 2 hrs followed by IL-6 stimulation measured after 30 mins by Western blot analysis; format: cell-based
[3] = system: A549; assay: Inhibition of beta-tubulin polymerization in human A549 cells at 1 uM after 12 to 24 hrs by DAPI staining based confocal microscopic method; format: cell-based
[4] = biological target: Signal transducer and activator of transcription 3 (Homo sapiens) (UniProt P40763); assay: Inhibition of STAT3 phosphorylation at Tyr-705 residue in human MDA-MB-231 cells at 8 to 10 uM after 12 hrs by Western blot analysis; format: cell-based
[5] = system: A549; assay: […] of beta-tubulin polymerization in human A549 cells at 1 uM after 12 to 24 hrs by DAPI staining based confocal microscopic method; format: cell-based
[6] = Solubility of the compound in 0.1% DMSO; format: physicochemical

Signal transducer and activator of transcription 3 (Homo sapiens), sequence (P40763 whole entry): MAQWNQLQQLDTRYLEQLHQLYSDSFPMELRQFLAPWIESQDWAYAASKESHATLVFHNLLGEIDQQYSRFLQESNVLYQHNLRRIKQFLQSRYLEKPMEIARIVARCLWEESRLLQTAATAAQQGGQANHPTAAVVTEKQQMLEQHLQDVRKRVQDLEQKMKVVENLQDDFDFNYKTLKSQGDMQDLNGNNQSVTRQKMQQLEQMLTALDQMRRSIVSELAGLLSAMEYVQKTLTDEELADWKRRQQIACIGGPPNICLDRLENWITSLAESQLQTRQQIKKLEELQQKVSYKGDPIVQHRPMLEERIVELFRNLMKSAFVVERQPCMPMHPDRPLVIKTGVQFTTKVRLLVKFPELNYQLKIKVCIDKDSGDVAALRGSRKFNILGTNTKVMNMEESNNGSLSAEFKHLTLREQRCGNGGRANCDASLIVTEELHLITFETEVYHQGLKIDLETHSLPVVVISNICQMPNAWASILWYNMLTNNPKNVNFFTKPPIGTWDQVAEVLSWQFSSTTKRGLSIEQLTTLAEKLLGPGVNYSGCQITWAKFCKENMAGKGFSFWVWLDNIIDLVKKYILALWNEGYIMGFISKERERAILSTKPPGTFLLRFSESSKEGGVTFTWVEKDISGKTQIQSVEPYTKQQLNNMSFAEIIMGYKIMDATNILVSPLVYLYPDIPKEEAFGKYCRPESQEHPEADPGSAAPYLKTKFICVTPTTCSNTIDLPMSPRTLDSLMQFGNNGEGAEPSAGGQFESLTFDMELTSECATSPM

COc1ccc(S(=O)(=O)n2ccc3cccc(-c4ccc(C#N)c(F)c4)c32)cc1
inhibition [1]: Dose-dependent effect
inhibition [2]: Active

COc1cc2c(c(OC)c1OC)-c1ccc(OC)c(=O)cc1[C@@H](NC(C)=O)CC2
inhibition [3]: Active

O=C(C1=Cc2cc(Br)ccc2S1(=O)=O)N1CCCCC1
inhibition [4]: Active

CC(=O)O[C@H]1C(=O)[C@@]2(C)[C@H]([C@H](OC(=O)c3ccccc3)[C@]3(O)C[C@H](OC(=O)[C@H](O)[C@@H](NC(=O)c4ccccc4)c4ccccc4)C(C)=C1C3(C)C)[C@]1(OC(C)=O)CO[C@@H]1C[C@@H]2O
Activity [5]: Active

COc1ccc(S(=O)(=O)n2cc(Cl)c3cccc(-c4ccc(Cl)cc4)c32)cc1
solubility [6]: Insoluble

COc1ccc(S(=O)(=O)n2ccc3cccc(Nc4ccc(C#N)c(F)c4)c32)cc1
inhibition [1]: Dose-dependent effect

COc1ccc(S(=O)(=O)n2ccc3cccc(-c4ccc(S(C)(=O)=O)cc4)c32)cc1
inhibition [1]: Dose-dependent effect
